Paper PMC10710878 (Journal of receptor and signal transduction research, 2022)
Structures can show the parent of a compound that is named as a salt. Where two headings read alike, the source gives them in different places. Each block holds one molecule with its values, some of them ahead of it.

Assays:
[1] = molecular target: T1, α2A-AR (Rattus norvegicus, UniProt P22909); format: cell-based; conditions: for pKb (equilibrium dissociation constant, Schild x-intercept): antagonizing EPI-induced reduction of epileptiform burst discharges
T1 sequence (P22909 1-465): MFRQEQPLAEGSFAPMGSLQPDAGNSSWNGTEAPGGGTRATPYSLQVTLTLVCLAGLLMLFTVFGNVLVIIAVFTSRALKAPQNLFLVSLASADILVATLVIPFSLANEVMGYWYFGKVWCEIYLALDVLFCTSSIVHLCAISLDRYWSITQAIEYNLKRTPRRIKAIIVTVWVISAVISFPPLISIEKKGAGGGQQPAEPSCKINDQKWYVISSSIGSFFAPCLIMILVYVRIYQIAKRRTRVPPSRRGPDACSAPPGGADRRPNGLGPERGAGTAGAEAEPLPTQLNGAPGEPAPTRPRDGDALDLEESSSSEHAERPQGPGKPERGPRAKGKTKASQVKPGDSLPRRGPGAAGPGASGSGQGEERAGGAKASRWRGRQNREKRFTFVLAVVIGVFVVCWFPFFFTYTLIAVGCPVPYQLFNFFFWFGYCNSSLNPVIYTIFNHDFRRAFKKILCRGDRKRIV

[2] = tested on: pyramidal cells; conditions: modulation of α2A-AR, data not shown
[3] = tested on: human α2A-AR versus α2B- or α2C-AR; conditions: published EC50 for cloned human α2-ARs, ref Table S3; cited from earlier work
[4] = tested on: human 5-HT1A; conditions: published pEC50, ref Table S3; cited from earlier work

SMILES: CNC[C@H](O)c1ccc(O)c(O)c1 [EPI, epinephrine]
- hyperpolarization of pyramidal cells [2]: does not hyperpolarize pyramidal cells

SMILES: CN1CCN(c2ccc(Nc3c4ccccc4nc4ccccc34)cc2)CC1 [JP-1302]
- pKb (equilibrium dissociation constant, Schild x-intercept) [1]: 5.23

SMILES: CN1CC[C@]2(CCN3CCc4c(oc5ccccc45)[C@@H]3C2)N(C)C1=O [MK-912]
- pKb (equilibrium dissociation constant, Schild x-intercept) [1]: 8.32

SMILES: CCS(=O)(=O)N1CCC[C@@H]2CN3CCc4cc(OC)ccc4[C@@H]3C[C@@H]21 [RS-79948]
- parallel rightward shift of the control EPI concentration-response curve ([1]; 3 nM RS-79948): 4 fold
- parallel rightward shift of the control EPI concentration-response curve ([1]; 10 nM RS-79948): 13 fold
- parallel rightward shift of the control EPI concentration-response curve ([1]; 30 nM RS-79948): 34 fold
- pKb (equilibrium dissociation constant, Schild x-intercept) [1]: 9.00 ± 0.16
- Schild regression slope ([1]; dose ratios of EPI EC50): 0.95 ± 0.11

SMILES: Brc1c(NC2=NCCN2)ccc2nccnc12 [UK-14304]
- greater potency at α2A-ARs than α2B- or α2C-ARs [3]: 10 fold
- lower potency towards 5-HT1A compared with the α2A-AR [4]: 1,000 fold

SMILES: COc1cccc(OC)c1OCCNCC1COc2ccccc2O1 (centres unmarked) [WB-4101]
- pKb (equilibrium dissociation constant, Schild x-intercept) [1]: 7.34

SMILES: Cc1cccc([C@H](C)c2cnc[nH]2)c1C [dexmedetomidine, dexmedetomidine hydrochloride]
- α2-AR subtype selectivity in words [3]: no subtype selectivity

SMILES: CCC1(C2=NCCN2)Cc2ccccc2O1 (centres unmarked) [efaroxan, efaroxan hydrochloride]
- Kb [1]: 0.00372 µM

The next lines start with the values.

- pKb (equilibrium dissociation constant, Schild x-intercept) [1]: 6.14
SMILES: COc1ccccc1N1CCN(CCN2C(=O)c3ccccc3C(C)(C)C2=O)CC1 [ARC-239]

- pKb (equilibrium dissociation constant, Schild x-intercept) [1]: 7.81
SMILES: CC1c2ccccc2CN1CC1=NCCN1 (centres unmarked) [BRL-44408]

- pKb (equilibrium dissociation constant, Schild x-intercept) [1]: 8.87
SMILES: COC1(C2=NCCN2)COc2ccccc2O1 (centres unmarked) [RX-821002]

- Kb [1]: 0.0398 µM
SMILES: N=C(N)N/N=C/c1c(Cl)cccc1Cl [guanabenz, guanabenz acetate]
